Experimental data reported in the supplement of paper PMC10307832.

Legend:
Assay in all cases: relative viability (nuclei count vs DMSO), 5 days (fraction); higher = more cells survive
Wnt-C59 + Navitoclax = compound: CC1=NC=CC(=C1)C2=CC=C(C=C2)CC(=O)NC3=CC=C(C=C3)C4=CN=CC=C4 [Wnt-C59] + CC1(C)CCC(c2ccc(Cl)cc2)=C(CN2CCN(c3ccc(C(=O)NS(=O)(=O)c4ccc(N[C@H](CCN5CCOCC5)CSc5ccccc5)c(S(=O)(=O)C(F)(F)F)c4)cc3)CC2)C1 [Navitoclax] (partner 0.5 µM)
Outline: (§1)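 Lung cancer cell lines were seeded in 1536-well plates and dosed by pin tool the next day, with either a single drug or a fixed anchor-drug dose combined with five library-drug doses (not always all listed) spaced in √10 steps. Five days later, one step fixed the cells and stained their nuclei (final 0.05% Triton X-100, 1% formaldehyde, 1 ug/ml Hoechst), and nuclei were counted on 4× images. Relative viability is the nuclei count in treated wells divided by the count in vehicle wells, and each value is the median of duplicate plates.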

Lapatinib + Foretinib = compound: CS(=O)(=O)CCNCc1ccc(-c2ccc3ncnc(Nc4ccc(OCc5cccc(F)c5)c(Cl)c4)c3c2)o1 [Lapatinib] + COc1cc2c(Oc3ccc(NC(=O)C4(C(=O)Nc5ccc(F)cc5)CC4)cc3F)ccnc2cc1OCCCN1CCOCC1 [Foretinib] (partner 0.25 µM)
Outline: as §1

Lapatinib + Alpelisib = compound: CS(=O)(=O)CCNCc1ccc(-c2ccc3ncnc(Nc4ccc(OCc5cccc(F)c5)c(Cl)c4)c3c2)o1 [Lapatinib] + Cc1nc(NC(=O)N2CCC[C@H]2C(N)=O)sc1-c1ccnc(C(C)(C)C(F)(F)F)c1 [Alpelisib] (partner 2 µM)
Outline: as §1

Lapatinib + AZD7762 = compound: CS(=O)(=O)CCNCc1ccc(-c2ccc3ncnc(Nc4ccc(OCc5cccc(F)c5)c(Cl)c4)c3c2)o1 [Lapatinib] + NC(=O)Nc1cc(-c2cccc(F)c2)sc1C(=O)N[C@H]1CCCNC1 [AZD7762] (partner 0.2 µM)
Outline: as §1

## NCI-H2405
Wnt-C59 + Navitoclax; first compound 0.001 µM
  relative viability: 0.946
Wnt-C59 + Navitoclax; first compound 0.03162 µM
  relative viability: 0.702
Wnt-C59 + Navitoclax; first compound 0.1 µM
  relative viability: 0.867
Lapatinib + Foretinib; first compound 0.02 µM
  relative viability: 1.04
Lapatinib + Foretinib; first compound 0.06325 µM
  relative viability: 0.911
Lapatinib + Foretinib; first compound 0.2 µM
  relative viability: 1.05
Lapatinib + Foretinib; first compound 0.6325 µM
  relative viability: 1.02
Lapatinib + Foretinib; first compound 2 µM
  relative viability: 0.92
Lapatinib + Alpelisib; first compound 0.06325 µM
  relative viability: 0.609
Lapatinib + Alpelisib; first compound 0.2 µM
  relative viability: 0.733
Lapatinib + Alpelisib; first compound 0.6325 µM
  relative viability: 0.781
Lapatinib + Alpelisib; first compound 2 µM
  relative viability: 0.689
Lapatinib + AZD7762; first compound 0.06325 µM
  relative viability: 0.682
Lapatinib + AZD7762; first compound 0.6325 µM
  relative viability: 0.759
Lapatinib + AZD7762; first compound 2 µM
  relative viability: 0.617

## NCI-H838
Wnt-C59 + Navitoclax; first compound 0.001 µM
  relative viability: 1.24
Wnt-C59 + Navitoclax; first compound 0.01 µM
  relative viability: 1.18
Wnt-C59 + Navitoclax; first compound 0.03162 µM
  relative viability: 1.18
Wnt-C59 + Navitoclax; first compound 0.1 µM
  relative viability: 1.16
Lapatinib + Foretinib; first compound 0.02 µM
  relative viability: 1.1
Lapatinib + Foretinib; first compound 0.06325 µM
  relative viability: 0.951
Lapatinib + Foretinib; first compound 0.2 µM
  relative viability: 1.14
Lapatinib + Foretinib; first compound 0.6325 µM
  relative viability: 1.06
Lapatinib + Foretinib; first compound 2 µM
  relative viability: 0.866
Lapatinib + Alpelisib; first compound 0.02 µM
  relative viability: 1.05
Lapatinib + Alpelisib; first compound 0.06325 µM
  relative viability: 0.88
Lapatinib + Alpelisib; first compound 0.2 µM
  relative viability: 1.07
Lapatinib + Alpelisib; first compound 0.6325 µM
  relative viability: 0.967
Lapatinib + Alpelisib; first compound 2 µM
  relative viability: 0.912
Lapatinib + AZD7762; first compound 0.02 µM
  relative viability: 0.927
Lapatinib + AZD7762; first compound 0.06325 µM
  relative viability: 0.832
Lapatinib + AZD7762; first compound 0.2 µM
  relative viability: 0.904
Lapatinib + AZD7762; first compound 0.6325 µM
  relative viability: 0.939
Lapatinib + AZD7762; first compound 2 µM
  relative viability: 0.843

## EPLC-272H
Wnt-C59 + Navitoclax; first compound 0.001 µM
  relative viability: 1.09
Wnt-C59 + Navitoclax; first compound 0.01 µM
  relative viability: 1
Wnt-C59 + Navitoclax; first compound 0.03162 µM
  relative viability: 1.06
Wnt-C59 + Navitoclax; first compound 0.1 µM
  relative viability: 1.21
Lapatinib + Foretinib; first compound 0.2 µM
  relative viability: 0.542
Lapatinib + Foretinib; first compound 0.6325 µM
  relative viability: 0.687
Lapatinib + Foretinib; first compound 2 µM
  relative viability: 0.325
Lapatinib + Alpelisib; first compound 0.06325 µM
  relative viability: 0.807
Lapatinib + Alpelisib; first compound 0.2 µM
  relative viability: 0.819
Lapatinib + Alpelisib; first compound 0.6325 µM
  relative viability: 0.746
Lapatinib + Alpelisib; first compound 2 µM
  relative viability: 0.821
Lapatinib + AZD7762; first compound 0.06325 µM
  relative viability: 0.191
Lapatinib + AZD7762; first compound 0.2 µM
  relative viability: 0.228
Lapatinib + AZD7762; first compound 0.6325 µM
  relative viability: 0.175
Lapatinib + AZD7762; first compound 2 µM
  relative viability: 0.252

## NCI-H1915
Wnt-C59 + Navitoclax; first compound 0.001 µM
  relative viability: 0.822
Wnt-C59 + Navitoclax; first compound 0.01 µM
  relative viability: 0.8
Wnt-C59 + Navitoclax; first compound 0.03162 µM
  relative viability: 0.77
Wnt-C59 + Navitoclax; first compound 0.1 µM
  relative viability: 0.8
Lapatinib + Foretinib; first compound 0.06325 µM
  relative viability: 1.06
Lapatinib + Foretinib; first compound 0.2 µM
  relative viability: 1.12
Lapatinib + Foretinib; first compound 0.6325 µM
  relative viability: 1.08
Lapatinib + Foretinib; first compound 2 µM
  relative viability: 1.09
Lapatinib + Alpelisib; first compound 0.06325 µM
  relative viability: 1.05
Lapatinib + Alpelisib; first compound 0.2 µM
  relative viability: 1.08
Lapatinib + Alpelisib; first compound 0.6325 µM
  relative viability: 1.03
Lapatinib + Alpelisib; first compound 2 µM
  relative viability: 1.02
Lapatinib + AZD7762; first compound 0.06325 µM
  relative viability: 0.71
Lapatinib + AZD7762; first compound 0.2 µM
  relative viability: 0.685
Lapatinib + AZD7762; first compound 0.6325 µM
  relative viability: 0.705
Lapatinib + AZD7762; first compound 2 µM
  relative viability: 0.592

## EMC-BAC-2
Wnt-C59 + Navitoclax; first compound 0.001 µM
  relative viability: 1.11
Wnt-C59 + Navitoclax; first compound 0.01 µM
  relative viability: 0.97
Wnt-C59 + Navitoclax; first compound 0.03162 µM
  relative viability: 1.16
Wnt-C59 + Navitoclax; first compound 0.1 µM
  relative viability: 0.969
Lapatinib + Foretinib; first compound 0.02 µM
  relative viability: 0.953
Lapatinib + Foretinib; first compound 0.06325 µM
  relative viability: 0.844
Lapatinib + Foretinib; first compound 0.2 µM
  relative viability: 0.969
Lapatinib + Foretinib; first compound 0.6325 µM
  relative viability: 0.86
Lapatinib + Foretinib; first compound 2 µM
  relative viability: 0.857
Lapatinib + Alpelisib; first compound 0.02 µM
  relative viability: 0.72
Lapatinib + Alpelisib; first compound 0.06325 µM
  relative viability: 0.652
Lapatinib + Alpelisib; first compound 0.2 µM
  relative viability: 0.694
Lapatinib + Alpelisib; first compound 0.6325 µM
  relative viability: 0.622
Lapatinib + Alpelisib; first compound 2 µM
  relative viability: 0.592
Lapatinib + AZD7762; first compound 0.06325 µM
  relative viability: 0.938
Lapatinib + AZD7762; first compound 0.2 µM
  relative viability: 1.05
Lapatinib + AZD7762; first compound 0.6325 µM
  relative viability: 1.13
Lapatinib + AZD7762; first compound 2 µM
  relative viability: 1.18
